In patent US6781020B2, “Water soluble bactericide and producing method thereof” (VMC Co., Ltd., priority 2001, dated 2004):

How the values were obtained:
catalase = biological target: T1, catalase (Homo sapiens, UniProt P04040); experiment: catalase test, oxidation ability in time sequence by potassium iodide titration; type: physicochemical; conditions: catalase final concentration 0.003%
T1 sequence (P04040 1-527): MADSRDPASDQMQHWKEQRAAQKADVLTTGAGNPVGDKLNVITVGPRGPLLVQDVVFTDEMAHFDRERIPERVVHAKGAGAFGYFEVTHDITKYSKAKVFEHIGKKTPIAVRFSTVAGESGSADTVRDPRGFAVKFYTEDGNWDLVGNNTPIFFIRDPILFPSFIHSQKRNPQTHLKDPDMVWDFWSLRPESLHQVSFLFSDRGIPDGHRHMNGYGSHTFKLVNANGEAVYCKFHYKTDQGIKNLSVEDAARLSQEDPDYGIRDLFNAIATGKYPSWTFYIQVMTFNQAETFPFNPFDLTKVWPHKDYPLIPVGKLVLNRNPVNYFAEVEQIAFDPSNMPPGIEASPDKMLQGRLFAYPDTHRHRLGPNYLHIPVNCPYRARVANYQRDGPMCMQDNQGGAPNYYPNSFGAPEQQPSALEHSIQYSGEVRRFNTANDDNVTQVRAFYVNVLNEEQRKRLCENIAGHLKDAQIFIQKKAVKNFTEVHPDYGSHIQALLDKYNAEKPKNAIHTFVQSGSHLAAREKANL

[1] = system: standard strain of Staphylococcus aureus; experiment: bactericidal ability test, development of bacteria after contact and overnight culture; type: cell-based; conditions: ozone-oxidized glycerin of about 10 unit/g, cultured overnight at 37° C., FIG. 1
[2] = system: standard strain of Escherichia coli; experiment: as above; type: cell-based; conditions: ozone-oxidized glycerin of about 10 unit/g, cultured overnight at 37° C., FIG. 1
[3] = system: standard strain of Pseudomonas aeruginosa; experiment: as above; type: cell-based; conditions: ozone-oxidized glycerin of about 10 unit/g, cultured overnight at 37° C., FIG. 1
[4] = system: clinical isolated strain of Salmonella; conditions: ozone-oxidized glycerin of about 10 unit/g, cultured overnight at 37° C., FIG. 1

Structure (SMILES) | time until the oxidation ability almost disappeared (catalase; 0.03% hydrogen peroxide solution, FIG. 8 left) [min] | attenuation of the oxidation ability due to catalase (catalase; FIG. 8) | bactericidal effects [1] | bactericidal effects [2] | bactericidal effects [3] | bactericidal effects [4]
OO [hydrogen peroxide] | 5 | rapidly attenuated | – | – | – | –
OCC(O)CO [glycerin] | – | – | not recognized | not recognized | not recognized | not recognized
